“Also recorded” adds a separate entry of the source.
How the values were obtained:
[1] = test system: LL29 cells (IPF patient-derived lung fibroblast cells); test: MTT cell viability of lung fibroblast cells compared with alveolar epithelial cells; assay type: cell-based, human; settings: for fibroblast cell-selective decrease in cell viability / cell death (LL29 versus A549): LL29 versus A549 cells, survived cell number
Description: (§1) A549 cells (human alveolar epithelial cells) and LL29 cells (IPF patient-derived lung fibroblast cells) were cultured under conditions of 37° C. and 5% CO2 by using, respectively, Dulbecco's modified Eagle's medium containing 10% FBS and Ham's F-12K (Kaighn's) medium containing 15% FBS.
The number of living cells was measured by an MTT method or trypan blue staining using Countess (trademark) Automated Cell Counter (Invitrogen, Carlsbad, CA). For evaluation of cell death, LDH activity in the medium was measured in accordance with the protocol of the assay kit.
For a specific method, IPF patient-derived lung fibroblast cells (LL29 cells) and human alveolar epithelial cells (A549 cells) were treated with existing approved drugs, and the cell viability 24 hours later was evaluated by an MTT method.
As with (b-1) above, IPF patient-derived lung fibroblast cells (LL29 cells) and human alveolar epithelial cells (A549 cells) were treated with existing approved drugs, and the cell viability 24 hours later was evaluated by an MTT method.

[2] = test system: BLM pulmonary injury model mouse; test: BLM pulmonary injury model: α-SMA immunostaining of the lung (myofibroblast cells); assay type: in vivo; settings: FIGS. 7A and 7B
Description: (§2) On day 1, BLM was administered via the airway to a normally reared male ICR mouse to prepare a BLM pulmonary injury model mouse.
A method for immunostaining with α-SMA was carried out by blocking the section with 2.5% goat serum for 10 minutes, and then performing a primary antibody treatment (against α-SMA, 1:100 dilution). At 12 hours later, the section was incubated with Alexa Fluor 594 goat anti-rabbit immunoglobulin G and DAPI for 2 hours. Thereafter, the section was encapsulated by using VECTA SHIELD. The section was photographed by using a microscope (Olympus DP71).
An α-SMA-positive region was quantitatively determined by using Image J software (National Institutes of Health, Bethesda, MD) The number of 8-OHdG-positive cells was quantitatively determined by using Definiens Tissue Studio (trademark) software (CTC Life Science Corporation, Tokyo, Japan).

LL29 cells [3] = test: TGF-β1-dependent activation of lung fibroblast cells: amount of collagen in the medium; assay type: cell-based, human; settings: LL29 cells treated with drug, then TGF-β1
Description: as §1
(§3) As described above, myofibroblast cells played an important role on pulmonary fibrosis in patients with IPF and bleomycin-induced pulmonary fibrosis. Thus, with attention focused on myofibroblast cells, the effects of idebenone and COQ10 were examined. […] Thus, the effects of idebenone and CoQ10 on TGF-β1-dependent activation of lung fibroblast cells (differentiation into myofibroblast cells) were compared. LL29 cells were treated with idebenone or CoQ10, and then treated with TGF-β1, and the amount of collagen in the medium was measured. […] Next, the effect of idebenone was examined by using the levels of α-SMA and mRNA of collagen as indices.

LL29 cells [4] = test: TGF-β1-dependent activation of lung fibroblast cells: α-SMA and Col1a1 mRNA by real-time RT-PCR; assay type: cell-based, human
Description: Total RNA of cells was extracted by using RNeasy kit (Qiagen). 2.5 μg of total RNA was subjected to reverse transcription reaction in accordance with the protocol from Takara Bio Inc by using a first-strand cDNA synthesis kit (Takara Bio Inc). The synthesized cDNA was analyzed with a CFX96 (trademark) real time system by using SsoFast EvaGreen Supermix. For equalizing the total RNA amounts in the reactions, a glyceraldehyde-3-phosphate dehydrogenase (GAPDH) gene was used as an internal standard.
as §1, §3

[5] = test system: BLM pulmonary injury model mouse; test: BLM pulmonary injury model: H&E / Masson's trichrome staining, Ashcroft score, hydroxyproline; assay type: in vivo; settings: for BLM-dependent pulmonary injuries: once a day day 10 to day 18, BLM 1 mg/kg, pirfenidone 200 mg/kg, nintedanib 30 mg/kg, tolperisone 5 mg/kg
[6] = test system: BLM pulmonary injury model mouse; test: BLM pulmonary injury model: lung function (elastance, FVC) with ventilator for mice; assay type: in vivo
Description: as §2
The lung function was measured in accordance with previous literature by using a computer-controlled ventilator for small animals (FlexiVent; SCIREQ, Montreal, Canada). A metal tube (with an outer diameter of 1.27 mm and an inner diameter of 0.84 mm) was inserted by 8 mm into a mouse anesthetized with chloral hydrate (500 mg/kg), and the mouse was caused to breathe mechanically at a rate of 150 breaths/min with a tidal volume of 8.7 ml/kg and a positive end-expiratory pressure ventilation of 2-3 cm H2O.
The total respiratory elastance and the tissue elastance were measured by the snap shot and the forced oscillation technique, respectively. The forced vital capacity was measured in accordance with Chest 142, 1011-1019 (2012) by using the computer-controlled ventilator for small animals and a negative pressure reservoir (SCIREQ, Montreal, Canada). All the data was analyzed by using FlexiVent software (version 5.3; SCIREQ, Montreal, Canada).

[7] = airway administration, day 10 to day 19 (FIG. 10D)
[8] = oral, once a day day 10 to day 18, pirfenidone 200 mg/kg, nintedanib 30 mg/kg, tolperisone 5 mg/kg
[9] = oral, 15 or 50 mg/kg once a day day 10 to day 18

## CCc1ccc(C(=O)C(C)CN2CCCC2)cc1 (centres unmarked) [inaperisone]
[1]
  fibroblast cell-selective decrease in cell viability / cell death (LL29 versus A549): induced fibroblast cell-selective cell death

## COC1=C(OC)C(=O)C(C/C=C(\C)CC/C=C(\C)CC/C=C(\C)CC/C=C(\C)CC/C=C(\C)CC/C=C(\C)CC/C=C(\C)CC/C=C(\C)CC/C=C(\C)CCC=C(C)C)=C(C)C1=O [CoQ10]
[2]
  bleomycin-induced increase in number of α-SMA-positive cells (myofibroblast cells) of the lung: did not exhibit such a suppressing effect
LL29 cells [3]
  TGF-β1-induced increase in amount of collagen in the medium: did not suppress such an increase
LL29 cells [4]
  TGF-β1-induced expression of α-SMA and Col1a1 mRNA: did not suppress such induction
[5]; airway administration, comparison idebenone / CoQ10 (FIGS. 5A to 5C)
  pulmonary injury and fibrosing by bleomycin: suppressed

## Cc1ccc(C(=O)C(C)CN2CCCCC2)cc1 (centres unmarked) [tolperisone]
[1]
  fibroblast cell-selective decrease in cell viability / cell death (LL29 versus A549): decreased the cell viability of LL29 cells (lung fibroblast cells) at a concentration lower than a concentration at which the cell viability of A549 cells (alveolar epithelial cells) decreased
[1]; screening of existing approved drugs, MTT, 24 hours, IC50 for LL29 lower than for A549
  difference in IC50 (concentration required to decrease the cell viability by 50%) between LL29 and A549 cells: particularly marked difference in IC50 value
[6]; [7]
  BLM-dependent decrease in FVC: suppressed such a decrease
  BLM-dependent increase in total respiratory system elastance and tissue elastance: tended to suppress such an increase
[6]; intraperitoneal administration
  BLM-dependent decrease in FVC: suppressed such a decrease
  BLM-dependent increase in total respiratory system elastance and tissue elastance: suppressed such an increase
[6]; oral administration (FIG. 11D)
  BLM-dependent decrease in FVC: suppressed such a decrease
  BLM-dependent increase in total respiratory system elastance and tissue elastance: suppressed such an increase
[6]; [8]
  BLM-dependent decrease in FVC: improved such changes
  BLM-dependent increase in total respiratory system elastance and tissue elastance: improved such changes
LL29 cells [4]
  TGF-β1-induced expression of α-SMA and Col1a1 mRNA: suppressed such induction
[5]; airway administration, day 10 to day 19 (FIG. 10C)
  BLM-dependent increase in amount of hydroxyproline: hardly suppressed such an increase
[5]; airway administration, day 10 to day 19 (FIGS. 10A and 10B)
  BLM-dependent pulmonary injuries and collagen accumulation: slightly suppressed such injuries and collagen accumulation
[5]; intraperitoneal administration
  BLM-dependent increase in amount of hydroxyproline: markedly suppressed such an increase
  BLM-dependent pulmonary injuries and collagen accumulation: suppressed such injuries and collagen accumulation
[5]; oral administration (FIG. 11C)
  BLM-dependent increase in amount of hydroxyproline: markedly suppressed such an increase
[5]; oral administration (FIGS. 11A and 11B)
  BLM-dependent pulmonary injuries and collagen accumulation: suppressed such injuries and collagen accumulation
[5]; oral, day 20
  BLM-dependent pulmonary injuries: markedly improved BLM pulmonary injuries

## COC(=O)c1ccc2c(c1)NC(=O)/C2=C(\Nc1ccc(N(C)C(=O)CN2CCN(C)CC2)cc1)c1ccccc1 [nintedanib]
[1]
  fibroblast cell-selective decrease in cell viability / cell death (LL29 versus A549): did not induce fibroblast cell-selective cell death; also recorded: hardly induced fibroblast cell-selective cell death
[5]; oral, day 20
  BLM-dependent pulmonary injuries: hardly suppressed BLM-dependent pulmonary injuries

## Cc1ccc(=O)n(-c2ccccc2)c1 [pirfenidone]
[1]
  fibroblast cell-selective decrease in cell viability / cell death (LL29 versus A549): did not induce fibroblast cell-selective cell death; also recorded: hardly induced fibroblast cell-selective cell death
[5]; oral, day 20
  BLM-dependent pulmonary injuries: hardly suppressed BLM-dependent pulmonary injuries

## CCc1ccc(C(=O)C(C)CN2CCCCC2)cc1 (centres unmarked) [eperisone]
[1]
  fibroblast cell-selective decrease in cell viability / cell death (LL29 versus A549): decreased the cell viability of LL29 cells at a concentration lower than a concentration at which the cell viability of A549 cells decreased
[6]; intraperitoneal administration
  BLM-dependent decrease in FVC: suppressed
  BLM-dependent increase in total respiratory system elastance and tissue elastance: suppressed
[6]; [9]
  BLM-dependent decrease in FVC: improved such changes in a concentration-dependent manner
  BLM-dependent increase in total respiratory system elastance and tissue elastance: improved such changes in a concentration-dependent manner
LL29 cells [4]
  TGF-β1-induced expression of α-SMA and Col1a1 mRNA: suppressed such induction
[5]; intraperitoneal administration
  BLM-dependent increase in amount of hydroxyproline: tendency of suppression
  BLM-dependent pulmonary injuries and collagen accumulation: suppressed
[5]; oral, 15 or 50 mg/kg once a day day 10 to day 18, BLM 1 mg/kg, day 20
  BLM-dependent pulmonary injuries and collagen accumulation: suppressed BLM-dependent pulmonary injuries and collagen accumulation in a concentration-dependent manner

## C[C@H](CN1CCCC1)C(=O)c1ccc(C(F)(F)F)cc1 [lanperisone]
[1]
  fibroblast cell-selective decrease in cell viability / cell death (LL29 versus A549): induced fibroblast cell-selective cell death

## Clc1ccc2nsnc2c1NC1=NCCN1 [tizanidine]
[1]
  fibroblast cell-selective decrease in cell viability / cell death (LL29 versus A549): did not exhibit such an effect
